Three compounds from patent publication US20080312306A1, “POLYMORPHS, SOLVATES, AND HYDRATE OF 5-(4'-FLUORO-2'-OXO-1',2'-DIHYDROSPIRO[CYCLOPROPANE-1,3'-INDOL]-5'-YL)-1-METHYL-1H-PYRROLE-2-CARBONITRILE” (Wyeth, priority 2007, published 2008) can be followed below.

Molecules are shown by their SMILES.

Common to all, as to type: physicochemical
The nature of data set [1]: Solid-form stability (thermodynamic stability, slurrying in solvent, water, micronization, vacuum). An excerpt:
(§1) The inventors found several advantages of these new forms of 5-(4′-fluoro-2′-oxo-1′,2′-dihydrospiro[cyclopropane-1,3′-indol]-5′-yl)-1-methyl-1H-pyrrole-2-carbonitrile. […] In yet a further embodiment, samples of the hydrate of 5-(4′-fluoro-2′-oxo-1′,2′-dihydrospiro[cyclopropane-1,3′-indol]-5′-yl)-1-methyl-1H-pyrrole-2-carbonitrile were hygroscopic.
The hydrate of 5-(4′-fluoro-2′-oxo-1′,2′-dihydrospiro[cyclopropane-1,3′-indol]-5′-yl)-1-methyl-1H-pyrrole-2-carbonitrile is also stable under a variety of conditions. In one example, the hydrate is stable in water. In another example, the hydrate is stable under conditions of micronization. In a further example, the hydrate is stable under a vacuum for a period of at least about 48 hours.

The nature of data set [2]: Hygroscopicity / water content by dynamic vapor sorption (DVS).
Source text: as §1
The hydrate has a different structure of the crystal lattice of 5-(4′-fluoro-2′-oxo-1′,2′-dihydrospiro[cyclopropane-1,3′-indol]-5′-yl)-1-methyl-1H-pyrrole-2-carbonitrile from the Form I described in the art as determined by XRD and DSC. Specifically, the hydrate contains water in the crystal lattice. Specifically, as evidenced by dynamic vapor sorption (DVS), the hydrate contains about 2.5% to about 5% water. In one embodiment, the hydrate contains about 2.5% water at 0% relative humidity (RH).

Data set [3] in a line: Relative solubility of the crystallographic forms.
Source text: as §1

As to `Cn1c(C#N)ccc1-c1ccc2c(c1F)C1(CC1)C(=O)N2` [hydrate, 5-(4′-fluoro-2′-oxo-1′,2′-dihydrospiro[cyclopropane-1,3′-indol]-5′-yl)-1-methyl-1H-pyrrole-2-carbonitrile], the stability entry in data set [1] (in water) and in data set [1] (under conditions of micronization) was “stable” each time. The “period of stability under a vacuum” value in data set [1] (under a vacuum) is reported as “at least 48 hours”. Further, the hygroscopicity entry in data set [2] is “hygroscopic”. For the same compound, the “water content (DVS)” value was “about 2.5%” in data set [2] (at 0% relative humidity (RH)) and “about 4.75%” in data set [2] (at 100% RH).
As for `Cn1c(C#N)ccc1-c1ccc2c(c1F)C1(CC1)C(=O)N2` [polymorph Form III, 5-(4′-fluoro-2′-oxo-1′,2′-dihydrospiro[cyclopropane-1,3′-indol]-5′-yl)-1-methyl-1H-pyrrole-2-carbonitrile], the solubility result is listed as “more soluble than other crystallographic forms” in data set [3] (compared with other crystallographic forms) and “more soluble than polymorph Form II” in data set [3] (compared with polymorph Form II).
Turning to `Cn1c(C#N)ccc1-c1ccc2c(c1F)C1(CC1)C(=O)N2` [polymorph Form II, 5-(4′-fluoro-2′-oxo-1′,2′-dihydrospiro[cyclopropane-1,3′-indol]-5′-yl)-1-methyl-1H-pyrrole-2-carbonitrile], the thermodynamic stability result in data set [1] (compared with polymorph Form I) is “more thermodynamically stable”. In data set [1] (if slurried in a solvent), the “conversion to other polymorphs” value is given as “does not convert to other polymorphs”. The hygroscopicity result in data set [2] is reported as “not hygroscopic”.
